One data set relates to PI3P. In kind it is cell-based.
Data set [1] is described as follows: in vitro. The conditions noted are these: human.
The next data set deals with HCV. The conditions noted are these: cited from earlier work.
Data set [2] in a line: in vitro. The conditions noted are these: human. The source holds these as a separate data set.
The subject of the next data set is HCV reporter virus JcR2a. In kind it is cell-based, hepatitis C virus. The conditions noted are these: HCV infection system, Huh7-derived cells expressing CD81.
The test system of the next data set is PI4P. In kind it is cell-based. The conditions noted are these: Huh7-Lunet/T7 cells expressing HCV NS3-5B, 1 µM for 2 h.
Data set [3] deals with SARS-CoV-2. The data set can be described thus: microbe, parasite or virus in culture. The conditions noted are these: Severe acute respiratory syndrome coronavirus 2, A549-ACE2, read-out: EC50, SARS-CoV-2.
Data set [4] deals with HA-nsp3-4-V5-induced DMVs. It counts as cell-based.
Data set [5] deals with SARS-CoV-2. The data set can be described thus: qRT-PCR-based SARS-CoV-2 replication assay in Calu-3 cells. It counts as cell-based.
The subject of data set [6] is SARS-CoV-2.
Data set [7] in a line: in vitro. The conditions noted are these: human. This is another data set of the same source.

Each structure is given as a SMILES string. Read-outs that look alike come from different tables or passages of the source.

`COC(=O)N[C@H](C(=O)N1CCC[C@H]1c1nc(-c2ccc(-c3ccc(-c4c[nH]c([C@@H]5CCCN5C(=O)[C@@H](NC(=O)OC)C(C)C)n4)cc3)cc2)c[nH]1)C(C)C` [Daclatasvir]: in the data set on PI3P, the “number of GFP-DFCP1 puncta in NS3-5B-expressing cells (NS5A wildtype)” value was “blunted” and the “reduction of GFP-DFCP1 abundance in cells expressing NS3-5B with NS5A Y93H” value was “not observed”. Further, the CC50 in the data set “in vitro [1]” is more than 25 nM. For the same compound, the DMV formation entry in the data set on HCV (NS5A inhibitor, ref Berger et al., 2014) was “block”. This compound registered a CC50 in the data set “in vitro [2]” of more than 25 nM.
In the case of `Nc1ncc(-c2ccnc(Nc3ccncc3)n2)c(CC2CC2)n1` [PIK-III], in the data set with HCV reporter virus JcR2a, the “selectivity index (ratio of EC50 and CC50)” value was more than 10. The “elevation of PI4P (PI4P puncta)” value in the data set on PI4P is given as “no effect”. In the data set with PI3P, the “abundance of GFP-DFCP1 puncta in SARS-CoV-2-infected cells” value was “reduced”, the “abundance of GFP-DFCP1 puncta in starved cells” value was “reduced to background levels” and the “number of GFP-DFCP1 puncta in HCV-replicating cells” value is given as “diminished”. In the data set on Huh7-Lunet/T7 cells, the “cell viability in HCV NS3-5B-transfected cells” value is recorded as “neither affected” and the “cell viability in SARS-CoV-2 HA-nsp3-4-V5-transfected cells” value was “did not affect”. Besides, the EC50 in the data set on SARS-CoV-2 [3] is approximately 170 nM. In addition, the “number of HA-nsp3-4-V5-induced DMVs” value in [4] is given as “significantly reduced”. The SARS-CoV-2 replication efficiency result in the data set with SARS-CoV-2 [5] is reported as “inhibition”. Further, in the data set on SARS-CoV-2 [6] (A549/ACE2 cells), the “fold by which EC50 is below the CC50 value” is recorded as not below 250 fold. In addition, the EC50 in the data set on SARS-CoV-2 [6] (read-out: EC50, SARS-CoV-2) was found to be 172 nM.
Regarding `COC[C@H]1OC(=O)c2coc3c2[C@@]1(C)C1=C(C3=O)[C@@H]2CCC(=O)[C@@]2(C)C[C@H]1OC(C)=O` [wortmannin], the HCV replication entry in the data set on HCV (inhibition of PI3K activity, ref Mohl et al., 2016) was “impairs”.
As for `Cn1cnc(N)c2ncnc1-2` [3-methyladenine], in the data set on HCV (PI3K inhibitor, ref Su et al., 2011), the “abundance of LC3-II in HCV-infected cells” value is reported as “reduces”.
In the case of `CCC(CC)COC(=O)[C@H](C)N[P@](=O)(OC[C@H]1O[C@@](C#N)(c2ccc3c(N)ncnn23)[C@H](O)[C@@H]1O)Oc1ccccc1` [Remdesivir], the CC50 in the data set “in vitro [7]” is more than 10000 nM.

For orientation: EC50 means the midpoint of the concentration-response curve.

(Values after publication PMC8577994 (Cell Reports, 2021).)
